In ChEMBL document CHEMBL1125024, “Hemoglobin S antigelation agents based on 5-bromotryptophan with potential for sickle cell anemia” (J Med Chem, 1990) one finds Slope data, which are given here for six compounds.

Where a SMILES comes first, the peptide text is derived from it. [ ]: non-standard residue; d: D form. Trp(5-Br) = N[C@@H](Cc1c[nH]c2ccc(Br)cc12)C(=O)O

The species entered for the assay is Homo sapiens. Description: Inhibitory activity against aggregation of deoxy-HbS using CSAT assay. It counts as functional.

In the case of `N[C@@H](Cc1c[nH]c2ccccc12)C(=O)O`, the Slope is 124 g dl-1M-1.
With `N[C@@H](Cc1c[nH]c2ccc(Br)cc12)C(=O)O` the figure was 356 g dl-1M-1; with `N[C@@H](Cc1c[nH]c2ccccc12)C(=O)N[C@@H](Cc1c[nH]c2ccccc12)C(=O)O` (H-Trp-Trp-OH), 235 g dl-1M-1; with `N[C@@H](Cc1c[nH]c2ccccc12)C(=O)N[C@@H](Cc1c[nH]c2ccc(Br)cc12)C(=O)O` (H-Trp-[Trp(5-Br)]-OH), 240 g dl-1M-1.
Turning to `N[C@@H](Cc1c[nH]c2ccc(Br)cc12)C(=O)N[C@@H](Cc1c[nH]c2ccccc12)C(=O)O` (H-[Trp(5-Br)]-Trp-OH), the Slope was 334 g dl-1M-1.
For `N[C@@H](Cc1c[nH]c2ccc(Br)cc12)C(=O)N[C@@H](Cc1c[nH]c2ccc(Br)cc12)C(=O)O` (H-[Trp(5-Br)]-[Trp(5-Br)]-OH), the Slope is 726 g dl-1M-1.
